PubChem BioAssay AID330 (DTP/NCI, 2004)
“And” between values parts separate entries of the source, which are not always exact repeats. Equal values may be shown once. Inconclusive results and toxic doses are left out.

Test system: P388 leukemia ip, CD2F1 mice, survival T/C
Assay: NCI In Vivo Anticancer Drug Screen. Data for tumor model P388 Leukemia (intraperitoneal) in CD2F1 (CDF1) mice
Settings: endpoint: median survival time, higher = longer survival
Method in brief: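 Mice carrying the transplanted tumor received test compound or vehicle. Survival was recorded in each group, and the value is the treated-group measurement divided by that of the vehicle-treated control group.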

[1] = dose: 60.0 mg/kg/injection, schedule: Q01DX005 (ip), vehicle: saline with Tween-80
[2] = dose: 120.0 mg/kg/injection, schedule: Q01DX005 (ip), vehicle: saline with Tween-80
[3] = dose: 240.0 mg/kg/injection, schedule: Q01DX005 (ip), vehicle: saline with Tween-80

In the case of `CC(=O)N(C)c1ccc(Nc2cc(C)[nH]c3ccc4ncnc4c23)cc1`, the T/C (dose: 5.0 mg/kg/injection, schedule: Q01DX005 (ip), vehicle: saline) is reported as 120 % of control and 122 % of control, the T/C (dose: 6.25 mg/kg/injection, schedule: Q01DX005 (iv), vehicle: saline) is reported as 100 % of control and the T/C (dose: 7.0 mg/kg/injection, schedule: Q01DX005 (ip), vehicle: saline) is reported as 121 % of control and 123 % of control. The T/C (dose: 11.0 mg/kg/injection, schedule: Q01DX005 (ip), vehicle: saline) was 123 % of control, the T/C (dose: 12.5 mg/kg/injection, schedule: Q01DX001 (iv), vehicle: saline) was 104 % of control and the T/C (dose: 12.5 mg/kg/injection, schedule: Q01DX005 (iv), vehicle: saline) was 106 % of control. For the same compound, the T/C (dose: 12.5 mg/kg/injection, schedule: Q01DX005 (oral), vehicle: saline) was 101 % of control, the T/C (dose: 12.5 mg/kg/injection, schedule: Q01DX009 (oral), vehicle: saline) was 95 % of control and the T/C (dose: 25.0 mg/kg/injection, schedule: Q01DX001 (ip), vehicle: saline) was 110 % of control. The T/C (dose: 25.0 mg/kg/injection, schedule: Q01DX001 (iv), vehicle: saline) was 100 % of control, the T/C (dose: 25.0 mg/kg/injection, schedule: Q01DX001 (oral), vehicle: saline) was 101 % of control and the T/C (dose: 25.0 mg/kg/injection, schedule: Q01DX005 (iv), vehicle: saline) was 105 % of control. For the same compound, the T/C (dose: 25.0 mg/kg/injection, schedule: Q01DX005 (oral), vehicle: saline) was 100 % of control, the T/C (dose: 25.0 mg/kg/injection, schedule: Q01DX009 (oral), vehicle: saline) was 94 % of control and the T/C (dose: 50.0 mg/kg/injection, schedule: Q01DX001 (ip), vehicle: saline) was 123 % of control. The T/C (dose: 50.0 mg/kg/injection, schedule: Q01DX001 (iv), vehicle: saline) was 103 % of control, the T/C (dose: 50.0 mg/kg/injection, schedule: Q01DX001 (oral), vehicle: saline) was 99 % of control and the T/C (dose: 50.0 mg/kg/injection, schedule: Q01DX005 (ip), vehicle: saline) was 155 % of control. The T/C (dose: 50.0 mg/kg/injection, schedule: Q01DX005 (iv), vehicle: saline) was 100 % of control, the T/C (dose: 50.0 mg/kg/injection, schedule: Q01DX005 (oral), vehicle: saline) was 103 % of control and the T/C (dose: 50.0 mg/kg/injection, schedule: Q01DX009 (oral), vehicle: saline) was 103 % of control. For the same compound, the T/C (dose: 90.0 mg/kg/injection, schedule: Q04DX002 (ip), vehicle: saline) was 158 % of control, the T/C (dose: 100.0 mg/kg/injection, schedule: Q01DX001 (ip), vehicle: saline) was 157 % of control and the T/C (dose: 100.0 mg/kg/injection, schedule: Q01DX001 (iv), vehicle: saline) was 124 % of control. For the same compound, the T/C (dose: 100.0 mg/kg/injection, schedule: Q01DX001 (oral), vehicle: saline) was 101 % of control, the T/C (dose: 100.0 mg/kg/injection, schedule: Q01DX005 (oral), vehicle: saline) was 97 % of control and the T/C (dose: 100.0 mg/kg/injection, schedule: Q01DX009 (oral), vehicle: saline) was 104 % of control. For the same compound, the T/C (dose: 200.0 mg/kg/injection, schedule: Q01DX001 (oral), vehicle: saline) was 105 % of control, the T/C (dose: 200.0 mg/kg/injection, schedule: Q01DX005 (oral), vehicle: saline) was 103 % of control and the T/C (dose: 200.0 mg/kg/injection, schedule: Q01DX009 (oral), vehicle: saline) was 100 % of control. The T/C (dose: 300.0 mg/kg/injection, schedule: Q01DX001 (oral), vehicle: saline) was 102 % of control, the T/C (dose: 300.0 mg/kg/injection, schedule: Q01DX005 (oral), vehicle: saline) was 106 % of control and the T/C (dose: 400.0 mg/kg/injection, schedule: Q01DX001 (oral), vehicle: saline) was 106 % of control. For the same compound, the T/C (dose: 600.0 mg/kg/injection, schedule: Q01DX001 (oral), vehicle: saline) was 119 % of control, the T/C (dose: 600.0 mg/kg/injection, schedule: Q01DX005 (oral), vehicle: saline) was 119 % of control and the T/C (dose: 1200.0 mg/kg/injection, schedule: Q01DX001 (oral), vehicle: saline) was 119 % of control.
With `CC1C(C)(C)P(C)(=O)C1(C)C` (configuration not stated) the T/C (dose: 100.0 mg/kg/injection, schedule: Q04DX002 (ip), vehicle: saline with Tween-80) was 89 % of control and the T/C (dose: 200.0 mg/kg/injection, schedule: Q04DX002 (ip), vehicle: saline with Tween-80) was 97 % of control.
For `O=c1[nH]c2cc(Cl)ccc2nc1C1=C(O)c2ccccc2C1`, the T/C [1] was 89 % of control, the T/C [2] was 89 % of control and the T/C [3] was 110 % of control.
For `COc1cc2c(cc1OC)C1CC(CC(N)=O)(C(N)=O)CCN1CC2` (configuration not stated), the T/C (dose: 50.0 mg/kg/injection, schedule: Q01DX005 (ip), vehicle: saline with Tween-80) was 97 % of control, the T/C (dose: 100.0 mg/kg/injection, schedule: Q01DX005 (ip), vehicle: saline with Tween-80) was 94 % of control and the T/C (dose: 200.0 mg/kg/injection, schedule: Q01DX005 (ip), vehicle: saline with Tween-80) was 90 % of control.
In the case of `C/C(=C/C(=O)O)c1ccc([N+](=O)[O-])cc1`, the T/C [1] is reported as 94 % of control, the T/C [2] is reported as 100 % of control and the T/C [3] is reported as 101 % of control.
